# Data: patent US12358879B2, “Heterocyclic compound” (Takeda Pharmaceutical Company Limited, priority 2019, dated 2025)
# Tested on: Skin fibroblasts derived from FA patients (GM4078)
# Assay: RSL3-induced cell death inhibitory activity in skin fibroblasts derived from FA patients (ATP, CellTiter-Glo)
# Assay type: cell-based, human
# Conditions: 3 μmol/l RSL3, 24 hours
# Experimental: The effects of the compounds according to the present disclosure were evaluated according to the literature (M. G. Cotticelli et al, J Pharmacol Exp Ther 2019, 369, 47-54.).
# Skin fibroblasts derived from FA patients (Coriell Institute for Medical Research, GM4078) were cultured in a culture medium consisting of DMEM (Thermo Fisher Scientific, 11995-065), 10% fetal bovine serum (Thermo Fisher Scientific, 26140-087), 1% GlutaMAX supplement (Thermo Fisher Scientific, 35050-061) and 1% Penicillin-Streptomycin solution (FUJIFILM Wako Pure Chemical Corporation, 168-23191).
# For assay, the fibroblasts in the above culture medium were seeded in a 384-well plate at 1,500 cells per well, and the test compound and 3 μmol/l (final concentration) RSL3 were added to the plate the day after seeding. The concentration of the test compound added to the assay plate was 0.01, 0.1, 1 and 10 μmol/l as 4 points, and DMSO was added as a negative control for the test compound and RSL3. Twenty-four hours after the addition of RSL3/the test compound, CellTiter-Glo Luminescent Cell Viability Assay solution (Promega, G7573) was added to the plate to lyse the cells, and ATP was measured as an index of cell viability by detecting chemiluminescence with a plate reader.
# RSL3-induced cell death inhibitory activity of the test compound=((X−C)/(T−C))×100 • X: ATP in the RSL3 addition/the test compound addition group, • C: ATP in the RSL3 addition/the test compound non-addition group, • T: ATP in the RSL3 non-addition/the test compound non-addition group
Compound,RSL3-induced cell death inhibitory activity (%) at each compound concentration (μmol/l) (compound 0.01 μmol/l),RSL3-induced cell death inhibitory activity (%) at each compound concentration (μmol/l) (compound 0.1 μmol/l),RSL3-induced cell death inhibitory activity (%) at each compound concentration (μmol/l) (compound 1 μmol/l),RSL3-induced cell death inhibitory activity (%) at each compound concentration (μmol/l) (compound 10 μmol/l)
"COc1cc(-c2cnn(C)c2)ccc1Nc1n[nH]c2cc(C(C)(C)O)ccc12 [Example 12, 2-{3-[2-methoxy-4-(1-methyl-1H-pyrazol-4-yl)anilino]-1H-indazol-6-yl}propan-2-ol]",33.2%,57.8%,79.9%,85.9%
"Cn1ncc(Nc2nn(C)c3cc(C(C)(C)O)ccc23)c1C(F)(F)F [Example 9, 2-(1-methyl-3-{[1-methyl-5-(trifluoromethyl)-1H-pyrazol-4-yl]amino}-1H-indazol-6-yl)propan-2-ol]",30.0%,61.8%,96.1%,84.6%
